Test results as given in patent US7358233B2, “Tetronic acid derivative” (Toudai TLO, Ltd, priority 2001, dated 2008).

How the values were obtained:
GRP78 [1] = test: Western blotting of endogenous GRP78 induction in HeLa78C6 cells; assay type: cell-based, human
Experimental: HeLa78C6 cells were cultured in DMEM media, 30 min before tunicamycin addition each concentration of VST was added, followed by 2 μg/mL of tunicamycin, and treated for 18 hours. The cells were collected, and the induction of GRP78 was detected by Western blotting using anti-GRP78 antibody (Stressgene). As a result, it was confirmed that VST inhibits not only the reporter assay, but also the induction of endogenous molecular chaperone GRP78 at the protein level in a concentration-dependent manner (FIG. 9A).
Furthermore, HeLa78C6 was cultured by the above-mentioned culturing method and pretreated for 30 min with 50 μM VST. Then, the cells were collected at each time point after the addition of tunicamycin to detect the GRP78 protein level by Western blotting.
Moreover, the GRP78 level 18 hours after the treatment with each of the indicated endoplasmic reticulum stress-inducing agents was detected using a method similar to that used for FIG. 9A.

HT-29 cells [2] = test: Colony formation of HT-29 cells under endoplasmic reticulum stress conditions; assay type: cell-based
Experimental: HT-29 cells were pretreated for 30 min with each concentration of VST, and then subjected to stress treatment with each of the endoplasmic reticulum stresses, i.e., tunicamycin, calcium ionophore A23187, glucose starvation and 2-DG, for 18 hours. Subsequently, the cells were cultured for 1 week […], and then colonies were measured by crystal violet staining.

GRP78 [3] = test: Western blotting of GRP78 induction in HT-29 cells under endoplasmic reticulum stress; assay type: cell-based; settings: pretreated 30 min, 18 hours
Experimental: (§1) Specifically, […] HT-29 and HT1080 were cultured in RPMI1640 medium and pretreated for 30 min with 3 μM and 30 μM VST. Next, the GRP78 level was detected 18 hours after each endoplasmic reticulum stress treatment by Western blotting (FIG. 10). […] This phenomenon could be elucidated for the first time by the use of VST.

HT-29 cells [4] = test: Re-examination of apoptosis inducing effect on HT-29 cells; assay type: cell-based
Description: Since the in vitro strong effect could not be confirmed in the animal experiment, the apoptosis inducing effect of VST on HT-29 cells was reexamined.

GRP78 [5] = test: Western blotting of GRP78 induction in HT1080 cells under endoplasmic reticulum stress; assay type: cell-based; settings: pretreated 30 min, 18 hours
Experimental: as §1

XBP1 = test: Formation of spliced XBP1 in HT1080 transfected with Flag-tagged XBP1; assay type: cell-based
Description: To elucidate the mechanism of VST to express its activity, the effect of VST on several factors that function in the pathway of endoplasmic reticulum stress response was examined. In particular, Ire1α-XBP1 pathway, a pathway of endoplasmic reticulum stress response and is widely conserved from yeast to mammalian cells, was examined. XBP1 spliced at the mRNA level from a precursor (XBP1 (U)) by Ire1α, that is activated in response to endoplasmic reticulum stress turns into the activated form (XBP1(S)), transfers to the nucleus, and induces transcription of GRP78 by binding to the GRP78 promoter, ERSE.
A plasmid wherein a Flag tag is linked to the cloned XBP1 was transfected into HT1080, and the cell was pretreated for 30 min with VST. 6 hours after imposing each stress, proteasome inhibitor MG132 was added and the cells were cultured for another 6 hours to prepare samples. The full length and spliced XBP1 were detected in the samples using anti-Flag antibody. Examination on the formation of the spliced form XBP1 due to 2-DG treatment is shown in FIG. 16A and that due to tunicamycin treatment is shown in FIG. 16B. Since the spliced form of XBP1 is very rapidly degraded by proteasomes, its detection is difficult. To overcome this problem, proteasome inhibitor MG132 was added. […]

SUSM-1 = test: Direct growth suppression, MTT method; assay type: cell-based; settings: Homo sapiens, 24 hours, read-out: IC50 of VST
Description: (§2) In this Example, HeLa cells and various other culture cells were used to measure the survival rate during the above-mentioned reporter analysis and VST addition. Specifically, in addition to HeLa cells (human cervical cancer cells), MCF-7 (human breast cancer cells), PC12NH (rat pheochromocytoma), MDA-MB-231 (human breast cancer cells), TIG-3 (human normal fibroblast cells), HeLa 786C cells (human cervical cancer cells), Saos-2 (telomerase and p53-deficient human cancer cells) and SUSM-1 (telomerase-deficient human cancer cells) were used.
(§3) The direct growth suppression activity of VST on these cells was measured using the MTT method. 100 μL cell suspension (5×10^4/mL) of each of the above-mentioned cells was dispensed into each well of a 96-well plate and cultured for 6 hours at 37° C. After culturing, VST solution diluted stepwise as in Example 4 was added thereto and cultured for another 24 hours. After culturing for 24 hours, 0.05 g/mL MTT solution (10 μL) was added to each well and incubation was performed at 37° C. for 4 hours. The medium was then removed, DMSO (100 μL) was added, and the absorbance at 530 nm was measured (FIG. 8).

PC12NH = test: Direct growth suppression, MTT method; assay type: cell-based; settings: Rattus norvegicus, 24 hours, read-out: IC50 of VST
Description: as §2, §3

HeLa cells = test: Direct growth suppression, MTT method; assay type: cell-based; settings: Homo sapiens, 24 hours, read-out: IC50 of VST
Description: as §2, §3

TIG-3 = test: Direct growth suppression, MTT method; assay type: cell-based; settings: Homo sapiens, 24 hours, read-out: IC50 of VST
Description: as §2, §3

HeLa786C = test: Direct growth suppression, MTT method; assay type: cell-based; settings: Homo sapiens, 24 hours, read-out: IC50 of VST
Description: as §2, §3

MCF-7 = test: Direct growth suppression, MTT method; assay type: cell-based; settings: Homo sapiens, MCF7, 24 hours, read-out: IC50 of VST
Description: as §2, §3

MDA-MB-231 = test: Direct growth suppression, MTT method; assay type: cell-based; settings: Homo sapiens, 24 hours, read-out: IC50 of VST
Description: as §2, §3

Saos-2 = test: Direct growth suppression, MTT method; assay type: cell-based; settings: Homo sapiens, 24 hours, read-out: IC50 of VST
Description: as §2, §3

HSP70 heat shock protein = test: Transcriptional activity of HSP70 (no data shown); assay type: cell-based

**Q.** `CC/C1=C\C(CO)CC(C)C(OC2CC(O)C(OC3CC(OC)C(OC4CC(O)C(O)C(C)O4)C(C)O3)C(C)O2)C(C)CCCC2(C)C=C(C)C(C)CC23OC(=O)C(=C3O)C(=O)C2(CC)C1C(C)=CC1C(O)CC(=O)C(C)C12` (stereo not drawn) [VST, versipelostatin] was tested. Which “GRP78 protein level, time course” value (GRP78 [1]; 50 μM VST pretreatment 30 min, 12 to 18 hours after tunicamycin 2 μg/mL (FIG. 9B)) did it give?
**A.** The value was “inhibited”.

**Q.** What about the “selectivity of the effect among endoplasmic reticulum stresses” value (GRP78 [1]; 18 hours (FIG. 9C)) of the same compound?
**A.** Its value is “higher selectivity against 2-deoxyglucose”.

**Q.** What about the “induction of GRP78 by each endoplasmic reticulum stress-inducing agent” value (GRP78 [1]; 18 hours after treatment (FIG. 9C)) of the same compound?
**A.** Its value is “inhibited the induction of GRP78 against any of the endoplasmic reticulum stresses”.

**Q.** What about the “induction of endogenous GRP78 at the protein level” value (GRP78 [1]; each concentration of VST 30 min before tunicamycin 2 μg/mL, 18 hours (FIG. 9A)) of the same compound?
**A.** Its value is “inhibits”.

**Q.** What about the “cell growth suppression (colony formation)” value (“cell growth suppression” below) (HT-29 cells [2]; 2-DG treatment 18 hours, 1 week culture (FIG. 11D)) of the same compound?
**A.** Its value is “strong cell growth suppression effect”.

**Q.** What about the “cell growth suppression” value (HT-29 cells [2]; glucose starvation 18 hours, 1 week culture (FIG. 11C)) of the same compound?
**A.** Its value is “strong cell growth suppression effect”.

**Q.** And the “cell growth suppression” value (HT-29 cells [2]; tunicamycin treatment 18 hours, 1 week culture (FIG. 11A))?
**A.** The value was “did not show suppression on cell growth”.

**Q.** And the “induction of GRP78 by 2-DG” value (GRP78 [3]; 3 μM VST)?
**A.** The value was “inhibits the induction of GRP78”.

**Q.** What about the “GRP78 induction due to tunicamycin treatment” value (GRP78 [3]; 30 μM VST) of the same compound?
**A.** The value was “did not inhibit GRP78 induction”.

**Q.** And the apoptosis induction effect (HT-29 cells [4])?
**A.** Its apoptosis induction effect is “fails to express apoptosis induction effect”.

**Q.** And the “growth suppression effect in colony forming tests” value (HT-29 cells [4])?
**A.** Its value is “shows growth suppression effect”.

**Q.** What about the “induction of GRP78 by 2-DG” value (GRP78 [5]; 3 μM VST) of the same compound?
**A.** Its value is “inhibits the induction of GRP78”.

**Q.** And the “GRP78 induction due to tunicamycin treatment” value (GRP78 [5]; 30 μM VST)?
**A.** Its value is “did not inhibit GRP78 induction”.

**Q.** What about the “formation of spliced XBP1” value (XBP1; 2-DG treatment, MG132 added (FIG. 16A)) of the same compound?
**A.** Its value is “inhibited”.

**Q.** What about the “formation of spliced XBP1” value (XBP1; tunicamycin treatment, MG132 added (FIG. 16B)) of the same compound?
**A.** The value was “did not inhibit the splicing of XBP1”.

**Q.** And the IC50 (SUSM-1)?
**A.** Its IC50 is greater than 100 µM.

**Q.** What about the IC50 (PC12NH) of the same compound?
**A.** The IC50 was greater than 100 µM.

**Q.** And the IC50 (HeLa cells)?
**A.** Its IC50 is greater than 100 µM.

**Q.** What about the IC50 (TIG-3) of the same compound?
**A.** The IC50 was greater than 100 µM.

**Q.** What about the IC50 (HeLa786C) of the same compound?
**A.** The IC50 was 52.9 µM.

**Q.** And the IC50 (MCF-7)?
**A.** Its IC50 is greater than 100 µM.

**Q.** What about the IC50 (MDA-MB-231) of the same compound?
**A.** Its IC50 is greater than 100 µM.

**Q.** And the IC50 (Saos-2)?
**A.** Its IC50 is greater than 100 µM.

**Q.** What about the “influence on the transcriptional activity of HSP70 heat shock protein” value (HSP70 heat shock protein) of the same compound?
**A.** Its value is “no influence”.
